Experimental data reported in patent US20120115905A1, “Nitrone, Nitroso, and Nitroxide Spintraps and Spin Labels and Their Hydroxylamines” (priority 2010, published 2012).
“Also recorded” adds a separate entry of the source.

Assays:
animal models = conditions: cited from earlier work
humans = conditions: human clinical trials, even at several grams per day doses; cited from earlier work
[1] = test system: fibrocystic disease of breast; assay: Treatment of fibrocystic disease of breast in a patient; format: in vivo, human
Experimental: (§1) The reduced form of TEMPOL (TEMPOL-H) or equivalent pharmacologically-active spin label/spintrap is prepared by mixing together 2 grams of TEMPOL or a pharmacologically effective amount of another spin-label or spin trap such as methynitrosopropane, 20 grams of ascorbic acid or other reducing compound in 100 ml of distilled water. The formulation is used as is. The solution is slightly-bitter. The formulation can be administered diluted in a suitable liquid such as juice, tea, or coffee. An equivalent dry form as 10 mg of tempol mixed with 100 mg of acsorbic acid or equivalent reducing substance can be easily prepared in capsule or tablet form.
(§2) One-half ml of the above solution, comprising 10 mg TEMPOL plus 100 mg ascorbic acid, was administered orally once a day to a 50 kg person with a long history for fibrocystic disease of breast so severe that surgeons had recommended mastectomy. The same person had also been previously-diagnoses with severe trigeminal neuralgia.
(§3) Long-term relief can be achieved, but the symptoms eventually reappear on cessation of treatment for a few weeks.

trigeminal neuralgia = assay: Treatment of trigeminal neuralgia in a patient; format: in vivo, human; conditions: for trigeminal neuralgia (summary statement): humans, route and dose not stated
Experimental: as §1, §2, §3

[2] = test system: premenstrual dysphoric disorder; assay: Treatment of premenstrual dysphoric disorder; format: in vivo, human; conditions: for premenstrual dysphoric syndrome and its associated comorbid symptoms (summary statement): humans, route and dose not stated
Experimental: as §1, §2

migraine headache = assay: Treatment of migraine headache; format: in vivo, human; conditions: for migraine headache (summary statement): humans, route and dose not stated
Experimental: as §1, §2

post-herpetic neuropathy = assay: Treatment of post-herpetic neuropathy / neuralgia; format: in vivo, human; conditions: for post-herpetic neuralgia (summary statement): humans, route and dose not stated
Experimental: as §1
One-half ml of the above solution was orally-administered daily to a middle-aged person with chronic post-herpetic neuropathy of the feet, peridontitis, and gingivitis.

[3] = test system: gingivitis and peridontitis; assay: Treatment of gingivitis and peridontitis; format: in vivo, human; conditions: for peridontitis and gingivitis (summary statement): humans, route and dose not stated
herpes zoster lesions = assay: Treatment of herpes zoster lesions; format: in vivo, human; conditions: for herpes zoster lesions (summary statement): humans, route and dose not stated
influenza = assay: Amelioration of influenza symptomology; format: in vivo, human; conditions: for influenza (summary statement): humans, route and dose not stated
rectal hemorrhoids = assay: Treatment of rectal hemorrhoids; format: in vivo, human; conditions: for rectal hemorrhoids (summary statement): humans, route and dose not stated
Experimental: Boil until methycellulose dissolves (5-10 minutes)
Alternative is I million-dalton MW 1% propylcellulose, which dissolves overnight without boiling.
Add 5 grams TEMPOL with stirring

cyclic vomiting syndrome = assay: Treatment of cyclic vomiting syndrome; format: in vivo, human; conditions: the above treatment (10 mg TEMPOL plus 100 mg ascorbic acid orally once a day)
[4] = test system: peripheral vascular disease; assay: Treatment of peripheral vascular disease; format: in vivo, human; conditions: the above treatment (10 mg TEMPOL plus 100 mg ascorbic acid orally once a day)
rhinositis = assay: Local nasal treatment of rhinositis; format: in vivo, human; conditions: 0.1 ml applied locally to the nasal cavity
[5] = 10 mg TEMPOL plus 100 mg ascorbic acid orally once a day, same patient
[6] = one-half ml of solution orally daily, middle-aged male
[7] = topical application once a day to the affected area

CC(C)(C)[N+]([O-])=Cc1ccc(S(=O)(=O)[O-])cc1S(=O)(=O)[O-].[Na+].[Na+] [NXY-059, disulfonyl PBN]
neuroprotective efficacy in animal models (animal models): effective in animal models
neuroprotective efficacy in humans (humans): not in humans; also recorded: perpetual failure

CC1(C)CC(O)CC(C)(C)N1[O] [TEMPOL, 4-hydroxy-2,2,6,6-tetramethylpiperidin-1-yloxy]
efficacy of Tempol itself (unreduced) ([1]; same doses as the reduced formulation): effective at the same doses
trigeminal neuralgia (summary statement) (trigeminal neuralgia): ameliorate
premenstrual dysphoric syndrome and its associated comorbid symptoms (summary statement) [2]: ameliorate
migraine headache (summary statement) (migraine headache): prevent and treat
post-herpetic neuralgia (summary statement) (post-herpetic neuropathy): prevent and treat
gingivitis and peridontitis, local intraoral treatment ([3]; 0.5 ml of 5% TEMPOL liquid or gel applied to the affected gums for one to three days): reducing tenderness and bleeding
peridontitis and gingivitis (summary statement) [3]: ameliorate
herpes zoster lesions (summary statement) (herpes zoster lesions): prevent and treat
influenza (summary statement) (influenza): ameliorate
symptoms of rectal hemorrhoids (rectal hemorrhoids; 0.2 ml of 5% solution (methyl cellulose gel) transrectally for one to three days): ameliorates the symptoms of rectal hemorrhoids, especially pain, swelling, and bleeding
rectal hemorrhoids (summary statement) (rectal hemorrhoids): ameliorate

CC1(C)CC(O)CC(C)(C)N1O [TEMPOL-H]
time until first results appeared ([1]; 10 mg TEMPOL plus 100 mg ascorbic acid orally once a day, one patient): 1-2 weeks
regression / shrinkage of the breast cysts ([1]; 10 mg TEMPOL plus 100 mg ascorbic acid orally once a day, one patient, mammographic imaging and digital palpation): almost complete regression; also recorded: shrinkage of the breast cysts
breast cysts upon resumption of treatment ([1]; resumption after cessation of treatment for a few weeks, same oral dose): again drastically shrink
effect on long-standing trigeminal neuralgia (trigeminal neuralgia; [5]): alleviated and prevented
trigeminal neuralgia (summary statement) (trigeminal neuralgia): ameliorate
symptoms of anxiety/depression and mood swings outside the premenstrual time period [2, 5]: Efficacy was observed
symptoms of premenstrual dysphoric disorder including comorbidity [2, 5]: alleviates and prevents
premenstrual dysphoric syndrome and its associated comorbid symptoms (summary statement) [2]: ameliorate
migraine headache (summary statement) (migraine headache): prevent and treat
migraine headache prevention and symptoms (migraine headache; the above treatment (10 mg TEMPOL plus 100 mg ascorbic acid orally once a day)): both prevents migraine headache and ameliorates the symptoms
cyclic vomiting syndrome (cyclic vomiting syndrome): prevents, controls, and ameliorates
peripheral vascular disease [4]: controls, and ameliorates
post-herpetic neuralgia (summary statement) (post-herpetic neuropathy): prevent and treat
symptomatic relief of chronic post-herpetic neuropathy of the feet (post-herpetic neuropathy; [6]): Symptomatic relief of all of these was experienced within one week
post-herpetic neuralgia, topical application (post-herpetic neuropathy; [7]): also effective
peridontitis and gingivitis (summary statement) [3]: ameliorate
symptomatic relief of peridontitis and gingivitis [3, 6]: Symptomatic relief of all of these was experienced within one week
gingivitis and peridontitis, topical application ([3]; topical application of the reduced TEMPOL solution): also effective
herpes zoster lesions (summary statement) (herpes zoster lesions): prevent and treat
herpes zoster lesions, topical application (herpes zoster lesions; [7]): also effective
influenza (summary statement) (influenza): ameliorate
symptoms of influenza (influenza; one-half ml orally once or twice daily): significantly-ameliorates
rhinositis (rhinositis): ameliorates rhinositis
rectal hemorrhoids (summary statement) (rectal hemorrhoids): ameliorate
